Results published in paper PMC6792352, “Limited Chemical Structural Diversity Found to Modulate Thyroid Hormone Receptor in the Tox21 Chemical Library” (Environmental Health Perspectives, 2019).
Counter-ions that a name gives are not always drawn. Like-named read-outs stand apart in the source and are kept apart here.

Tests used:
in vitro [1] = conditions: rat, gh3-tre-luc cells, AC50 (uM) modified / 1000
[2] = Global cytotoxicity: eighteen Tox21 cell viability assays; type: cell-based
[3] = test system: Tox21 cell viability assays (different cell types); assay: as above; type: cell-based
in vitro [4] = conditions: rat
[5] = test system: thyroid hormone receptor (endogenous TRα and TRβ); assay: GH3-TRE-Ag primary qHTS, luciferase reporter, agonist mode (TOX21_TR_LUC_GH3_Agonist, aeid 803); type: cell-based, rat
[6] = test system: thyroid hormone receptor (endogenous TRα and TRβ); assay: GH3-TRE-Antag primary qHTS, luciferase reporter, antagonist mode with 1 nM T3 (TOX21_TR_LUC_GH3_Antagonist, aeid 804); type: cell-based, rat
GH3-TRE-Luc cell line [7] = assay: GH3-TRE-Via cell viability, CellTiter-Fluor (TOX21_TR_LUC_GH3_Antagonist_viability, aeid 805)
GH3-TRE-Luc cell line [8] = test system: GH3-TRE-Luc cell line
[9] = test system: thyroid hormone receptor (endogenous TRα and TRβ); assay: GH3-TRE-Ag-Followup confirmation (TOX21_TR_LUC_GH3_Agonist_Followup, aeid 2226); type: cell-based, rat
[10] = test system: thyroid hormone receptor (TR); assay: Classification of TR actives across characterization assays (TR-Ag / RXR-Ag; TR model binary); set-up: key to Categorization Code: FP, false positive; conditions: TR agonist characterization
Source text: Active rate comparison between receptors. […]; [Kleinstreuer et al. 2017]). We first removed chemicals classified as pharmaceuticals because these sets of chemicals are biased toward drugs targeting estrogen receptors and androgen receptors. […]. For TR, we cross-referenced these same chemicals for testing against TR and used candidate chemicals in Tables 2 and 3 to define active rates.
Complete results from both GH3-TRE qHTS agonist, antagonist, and viability mode for the 8,305 compounds are provided in Excel Table S2. […]. […]. Together with some potential false negatives, these chemicals, totaling 84 in all, were screened for activity in a series of assays for confirmation in the GH3-TRE-Ag assay; specificity screening in the TRβ-UAS-bla HEK 293T and RXRα-UAS-bla HEK 293T mammalian one-hybrid assays; viability assays for the HEK293T parental cell line; and orthogonal screening in two TR:coactivator recruitment assays, TRa-coa and TRb-coa. […].

human RXRα = target: T1, human RXRα (Homo sapiens, UniProt P19793); assay: RXRa-bla-Ag mammalian one-hybrid beta-lactamase assay (TOX21_TR_RXR_BLA_Agonist_Followup_ratio, aeid 2253); type: cell-based
T1 construct: host or cells: GeneBLAzer UAS-bla HEK 293T
T1 sequence (P19793 227-458 limits assumed): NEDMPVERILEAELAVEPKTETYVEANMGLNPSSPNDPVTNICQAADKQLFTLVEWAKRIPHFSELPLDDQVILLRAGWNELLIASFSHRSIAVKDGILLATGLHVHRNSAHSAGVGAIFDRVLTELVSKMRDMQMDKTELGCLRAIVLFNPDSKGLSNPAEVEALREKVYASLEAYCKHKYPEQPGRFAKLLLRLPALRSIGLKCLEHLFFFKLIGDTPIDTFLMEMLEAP

[11] = target: T2, human TRβ ligand-binding domain (Homo sapiens, UniProt P10828); assay: TRb-coa LanthaScreen TR-FRET coactivator (SRC-2 peptide) recruitment, agonist (TOX21_TRB_COA_Agonist_Followup_ratio, aeid 2244); type: biochemical; set-up: host or cells: GeneBLAzer UAS-bla HEK 293T
T2 sequence (P10828 217-461 limits assumed): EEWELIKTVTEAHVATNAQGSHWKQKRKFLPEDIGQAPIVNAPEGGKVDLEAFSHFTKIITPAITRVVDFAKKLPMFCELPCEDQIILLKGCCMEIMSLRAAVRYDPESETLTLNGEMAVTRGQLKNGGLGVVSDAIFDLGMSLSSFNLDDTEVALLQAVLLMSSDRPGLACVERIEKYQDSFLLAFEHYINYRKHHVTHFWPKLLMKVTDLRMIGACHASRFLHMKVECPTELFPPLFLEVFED

[12] = target: T3, TRα ligand-binding domain (Homo sapiens, UniProt P10827); assay: TRa-coa LanthaScreen TR-FRET coactivator (SRC-2 peptide) recruitment, agonist (TOX21_TRA_COA_Agonist_Followup_ratio, aeid 2230); type: biochemical
T3 construct: the receptor LBDs expressed as glutathione S-transferase (GST) fusion proteins; purchased

[13] = target: T2, human TRβ ligand-binding domain; assay: TRb-bla agonist mammalian one-hybrid beta-lactamase assay (TOX21_TRB_BLA_Agonist_Followup_ratio, aeid 2236); type: cell-based; set-up: host or cells: GeneBLAzer UAS-bla HEK 293T
[14] = antagonist candidates, inactive samples arbitrarily set to AC50=1,000 μM, read-out: GH3-TRE-Ag AC50

T3 sequence (P10827 163-410 isoform P10827-2 limits assumed, other chains not shown): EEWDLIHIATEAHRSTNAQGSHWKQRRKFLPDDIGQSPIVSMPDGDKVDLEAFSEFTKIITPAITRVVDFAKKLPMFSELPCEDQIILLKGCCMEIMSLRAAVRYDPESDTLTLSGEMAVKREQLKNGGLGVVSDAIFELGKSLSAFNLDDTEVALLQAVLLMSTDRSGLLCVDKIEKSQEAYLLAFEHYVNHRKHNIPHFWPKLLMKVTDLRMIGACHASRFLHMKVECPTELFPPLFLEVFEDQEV

For `CC[C@H]1OC(=O)C[C@@H](O)[C@H](C)[C@@H](O[C@@H]2O[C@H](C)C[C@H](N(C)C)[C@H]2O)[C@@H](CC=O)C[C@@H](C)C(=O)/C=C/[C@]2(C)O[C@H]2[C@@H]1C` [Rosaramicin], the CC50 at 24 h (in vitro [1]) was 22.9 µM, the AC50 [2] was 26.8 µM and the “Active in global cytotoxicity assays (%)” value [3] was 46.7%. It also gave an AC50 at 24 h (in vitro [4]) of 24.4 µM and an AC50 [5, 14] of over 92 µM.

With `CC(C)(c1ccc(O)cc1)c1ccc(O)cc1` [BPA, bisphenol A] the CC50 at 24 h (in vitro [1]) was over 90 µM and the “activity in GH3-TRE antagonist mode assay” value (shortened to “activity”) [6] was “active in suppressing the TR transactivation assay”.

With `CCc1cc(OC)c(C[C@@H](C)N)cc1OC` [(-)-2,5-Dimethoxy-4-ethylamphetamine hydrochloride] the “resp_max GH3-TRE-Antag” value ([6]; Table S8) was 85.7 and the “resp_max GH3-TRE-Via” value (GH3-TRE-Luc cell line [7]; Table S8) was 62.2.

In the case of `CN(C)S(=O)(=O)N(SC(F)(Cl)Cl)c1ccccc1` [Dichlofluanid], the CC50 at 24 h (in vitro [1]) is reported as 1.43 µM, the “activity” value [6] is reported as “active” and the “cytotoxicity in GH3 viability assay” value (GH3-TRE-Luc cell line [8]) is reported as “loss of viability at virtually identical concentrations”.

For `CC[C@@]1(O)C(=O)OCc2c1cc1n(c2=O)Cc2cc3c(CN(C)C)c(O)ccc3nc2-1` [Topotecan hydrochloride, reference compound], the “activity” value [6] was “complete inhibition of luciferase activity” and the “cytotoxicity in GH3 viability assay” value (GH3-TRE-Luc cell line [8]) was “not considered active”.

In the case of `O=c1[nH]cnc2c1ncn2[C@H]1CC[C@@H](CO)O1` [2',3'-Dideoxyinosine], the “EMax (% of Control) gh3-tre-agonist-followup-1_agonist” value [9] is reported as 78.5 % of Control, the GH3-TRE-Ag-Followup hitc ([9]; hit call from tcpl) is reported as 1 and the AC50 ([9]; read-out: GH3-TRE-Ag-Followup AC50) is reported as 3.46 µM. For the same molecule, the CC50 at 24 h (in vitro [1]) was over 100 µM, the “Categorization Code” value [10] was “FP” and the “GLOBAL CYTOTOXICITY cytotox.median” value [3] was over 92. The “GLOBAL CYTOTOXICITY cytotox.number_Active” value [3] was 0, the tr-followup-rxr-bla-agonist-1 hitc (human RXRα; hit call from tcpl) was 0 and the Emax (human RXRα; read-out: EMax (% of Control) tr-followup-rxr-bla-agonist-1) was -0.6%. It also gave an AC50 (human RXRα; read-out: tr-followup-rxr-bla-agonist-1 AC50) of over 92 µM, an AC50 (GH3-TRE-Luc cell line [7]; Rattus norvegicus, read-out: TR_LUC_GH3_Antagonist_viability AC50 (uM)) of over 92 µM and an AC50 ([11]; agonist, read-out: TRb-coa AC50) of over 92 µM. For the same molecule, the TRb-coa hitc ([11]; hit call from tcpl, agonist) was 0, the Emax ([11]; read-out: EMax (% of Control) trb-coa-agonist-followup-1) was -0.448% and the AC50 ([12]; agonist, read-out: TRa-coa AC50) was over 92 µM. It also gave a TRa-coa hitc ([12]; hit call from tcpl, agonist) of 0, an Emax ([12]; read-out: EMax (% of Control) tra-coa-agonist-followup-1) of -0.5% and an AC50 ([13]; agonist, read-out: TRb-bla AC50) of 3.46 µM. The TRb-bla hitc ([13]; hit call from tcpl, agonist) was 1, the Emax ([13]; read-out: EMax (% of Control) trb-bla-agonist-followup-1) was 74.4% and the “EMax (% of Control) gh3-tre-agonist” value [5] was 1.6 % of Control. For the same molecule, the “GH3-TRE-Ag AC50 hitc” value ([5]; hit call from tcpl) was 0, the AC50 ([5]; read-out: GH3-TRE-Ag AC50) was over 92 µM and the TR_LUC_GH3_Antagonist_viability hitc (GH3-TRE-Luc cell line [8]; rat, 24 h) was 0.

With `CNCC[C@H](Oc1cccc2ccccc12)c1cccs1` [Duloxetine hydrochloride, reference compound] the AC50 at 24 h (in vitro [4]) was 5.69 µM, the AC50 ([6]; read-out: GH3-TRE-Antag AC50, antagonist mode, 1 nM T3) was 6.22 µM and the AC50 ([5]; read-out: GH3-TRE-Ag AC50) was over 92 µM.

For `O=C(CO)[C@@H](O)[C@H](O)[C@@H](O)C(=O)O` [Calcium 5-ketogluconate], the CC50 at 24 h (in vitro [1]) was over 50 µM, the hitc ([6]; Table S2, aeid 804) was 0 and the hitc_modified ([6]; Table S2, aeid 804) was 0. For the same molecule, the “resp_max (maximum response value)” value ([6]; Table S2, aeid 804) was 6.735 percent_activity, the AC50 ([6]; Table S2, aeid 804, inactive set to 1000, read-out: AC50 (uM) modified) was over 50 µM and the “resp_max (maximum response value)” value (GH3-TRE-Luc cell line [7]; Table S2, aeid 805) was 18.832 percent_activity. For the same molecule, the “modl_tp (top asymptote for the winning model)” value ([5]; Table S2, aeid 803) was 2.81 percent_activity, the “resp_max (maximum response value)” value ([5]; Table S2, aeid 803, per sample) was 2.734 percent_activity and the hitc ([5]; Table S2, aeid 803, tcpl hit call) was 0. The hitc_modified ([5]; Table S2, aeid 803, final hitc after manual review) was 0, the AC50 ([5]; Table S2, aeid 803, inactive set to 1000, read-out: AC50 (uM) modified) was over 50 µM and the AC50 (GH3-TRE-Luc cell line [8]) was over 50 µM. For the same molecule, the hitc (GH3-TRE-Luc cell line [8]) was 0 and the hitc_modified (GH3-TRE-Luc cell line [8]) was 0.

With `N=C1C=CC(=C(c2ccc(N)cc2)c2ccc(N)cc2)C=C1` [C.I. Basic Red 9 monohydrochloride] the CC50 at 24 h (in vitro [1]) was 8.8 µM, the AC50 [3] was 24.2 µM and the “Active in global cytotoxicity assays (%)” value [3] was 66.7%. It also gave an AC50 ([6]; antagonist mode, 1 nM T3, read-out: GH3-TRE-Antag AC50) of 5.15 µM, an AC50 [5, 14] of over 92 µM and an AC50 (GH3-TRE-Luc cell line [8]) of 8.8 µM.
